Source: US6235516A, “Biocatalysts with amine acylase activity” (Novartis AG, priority 1996, dated 2001)
“And” between values parts separate entries of the source, which are not always exact repeats. Equal entries are not always repeated. Where two headings read alike, the source gives them in different places.

What was measured:
Ac6-acylase = Ac6-acylase (Rhodococcus (subgen. Prescottella) equi, UniProt A0A3S5Y3Z2); assay: Activity of the Ac6-acylase in the presence of potential enzyme activators and inhibitors; assay type: biochemical; settings: for activity at 10000 µM: read-out: Relative activity (%)
Protocol: After an incubation at 30° C. for a time period allowing the liberation of 0 to 3 mM of 1-phenylethylamine 400 μl of ice cooled acetone are added to stop the reaction. The tube is mixed vigorously, put on ice for about 15 min., and then is centrifuged for 4 min at 11500 rpm in a Biofuge 15 (Heraeus Sepatech, Osterode Germany). The supernatant is subjected to quantitative HPLC analysis. If activity assays contain crude extracts of cells grown in the presence of N-acetyl-1-phenylethylamine a control assay without substrate has to be prepared in parallel in order to determine the 1-phenylethylamine content of the crude extract. For HPLC analysis sample volumes of 20 μl are injected onto a RP-8 column (LiChroCART 125-4, LiChrospher 100 RP-8 ([…]), guard column: LiChroCART 4-4, LiChrospher 100 RP-8 ([…]), Merck Co., Darmstadt Germany). The following gradient with a flow rate of 1.25 ml/min. is applied for the separation of the substrate N-acetyl-1-phenylethylamine and the product 1-phenylethylamine:
One unit (U) of acylase activity is defined as the amount of enzyme catalyzing the liberation of 1 μmol of 1-phenylethylamine per minute. The acylase concentration in the samples is calculated according to the following formula: […]
In the presence of various potential enzyme activators and inhibitors activity assays are performed according to the scheme given in example 1 by applying the following conditions and final concentrations:
(S)-N-acetyl-1-phenylethylamine 20 mM
Purified acylase from example 4 c 0.02 U/ml
Incubation time 120 min.

AcR5b-acylase = assay: Activity of the AcR5b-acylase in the presence of potential enzyme activators and inhibitors; assay type: biochemical, Arthrobacter aurescens AcR5b; settings: for Relative activity (%), EDTA reactivation: preincubated with 1 mM metal cation, then 10 mM EDTA for 30 min
Protocol: 40 μl of the concentrated enzyme solution from example 4d) are mixed with 360 μl of 1 and 10 mM solutions of the potential activators/inhibitors in 100 mM Tris-HCl buffer, pH 8, and incubated at room temperature for 30 min. These preincubated acylase solutions are used as the enzyme source for activity assays in the presence of the activator/inhibitor (see example 8) in the concentration used for the preincubation. The incubation time is 12 min. For the EDTA reactivation the acylase is first preincubated with the metal cation at 1 mM concentration (see above). After adding EDTA to a final concentration of 10 mM in form of a 110 mM solution in 100 mM Tris-HCl, pH 8, the acylase is preincubated a second time for 30 min., before the standard activity assay is performed.

[1] = system: Rhodococcus globerulus K1/1 acylase; assay type: biochemical
Protocol: The standard assay for K1/1-acylase activity used for monitoring the purification and for the enzymological characterization is performed by mixing 20 μl of an enzyme sample with 380 μl of a 5.55 mM solution of (S)-2-acetylamino-1-phenyl-4-pentene in 69 mM potassium phosphate buffer, pH 7, and incubating at 23° C. The dilution of the acylase and the incubation time are chosen so that not more than 1.3 mM of product are formed. The reaction is stopped by addition of 800 μl ice cold methanol. After centrifugation for 4 min at 11500 rpm in a Biofuge 15 (Heraeus Sepatech, Osterode, Germany) the supernatant is subjected to quantitative HPLC analysis (see example 1).
27.1. Activity of the Rhodococcus globerulus K1/1 acylase in the presence of potential enzyme activators and inhibitors: […]

[2] = biological target: T1, acylase from Rhodococcus equi Ac6 (Rhodococcus (subgen. Prescottella) equi, UniProt A0A3S5Y3Z2); assay: Enzymatic hydrolysis of racemic amides with partially purified acylase from Rhodococcus equi Ac6; assay type: biochemical; design: e.e. (R)-Amide: unit not given here
T1 construct: N-terminus […]
Protocol: To 10 ml of a 20 mM solution of each of the racemic amides shown below 1 in 0.1 M phosphate buffer pH 7.0, 5 ml (1.3 units) of the enzyme is added and the solutions are shaken at 100 rpm and 30° C. [drawing 10] [drawing 11]
When the conversion reaches about 50% (checked by HPLC) the solutions are acidified to pH 2 by adding 1 N HCl and extracted three times with dichloromethane to obtain the unconverted amides. The aqueous layers are neutralized with 1 N NaOH solution and extracted again three times with dichloromethane to recover the formed amines. Both organic phases are dried with MgSO4, filtered and the solvent is distilled off. The amides are used directly for optical purity determinations (HPLC), whereas the obtained amines are converted to the acetamides by adding 100 μl triethylamine and 100 μl acetic anhydride to each sample and then analyzed for the optical purity by "chiral" HPLC.
The experiments are carried out in the same manner as described in example 22.

[3] = compound 1 mM, 20 mM (S)-N-acetyl-1-phenylethylamine, Tris-HCl pH 8, 120 min, none = 100
[4] = compound 10 mM, values in brackets: precipitates formed during the assay, none = 100
[5] = compound 1 mM, 30 min preincubation, Tris-HCl pH 8, none = 100
[6] = compound 10 mM, 30 min preincubation, values printed in brackets: precipitates formed, none = 100

T1 sequence (A0A3S5Y3Z2 1-487): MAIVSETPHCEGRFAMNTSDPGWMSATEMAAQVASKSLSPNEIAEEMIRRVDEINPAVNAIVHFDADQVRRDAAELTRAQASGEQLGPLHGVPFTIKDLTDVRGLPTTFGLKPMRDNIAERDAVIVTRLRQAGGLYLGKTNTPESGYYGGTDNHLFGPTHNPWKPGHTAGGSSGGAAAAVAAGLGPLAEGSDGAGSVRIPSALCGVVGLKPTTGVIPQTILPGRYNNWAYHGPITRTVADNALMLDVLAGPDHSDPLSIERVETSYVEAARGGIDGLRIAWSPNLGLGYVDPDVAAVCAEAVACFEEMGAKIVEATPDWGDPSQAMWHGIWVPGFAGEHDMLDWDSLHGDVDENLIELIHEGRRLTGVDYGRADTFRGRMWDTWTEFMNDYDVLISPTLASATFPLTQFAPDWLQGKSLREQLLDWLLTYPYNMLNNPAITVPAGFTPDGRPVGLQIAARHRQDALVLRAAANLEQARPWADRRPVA
Chain of Ac6-acylase (A0A3S5Y3Z2 entry or part of it): as the sequence (A0A3S5Y3Z2 1-487) above

| Structure (SMILES) | Relative activity (%) (Ac6-acylase; [3]) | Relative activity (%) (AcR5b-acylase; [5]) | Relative activity (%) (AcR5b-acylase; [6]) | Relative activity (%) ([1]; compound 1 mM, none = 100) | Relative activity (%) ([1]; compound 10 mM, none = 100) | Relative activity (%) (Ac6-acylase; [4]) | other results |
| --- | --- | --- | --- | --- | --- | --- | --- |
| O[C@H](CS)[C@H](O)CS (racemic) [Dithiothreitol] | 103% | 35% | 5.4% | 112% | 77% | – | activity at 10000 µM (Ac6-acylase; [4]): 100% |
| CC(=O)NC(C)c1ccc2ccccc2c1 (racemic) [Substrate 7a] | – | – | – | – | – | – | Selectivity E ([2]; enantioselectivity of the hydrolysis): 88; e.e. (S)-Amine ([2]; formed amine, analysed as acetamide): 97.4; e.e. (R)-Amide ([2]; unconverted amide, chiral HPLC): 16.4 |
| [Ba+2].[Cl-].[Cl-] [BaCl2] | 95% | 92% | 89% | – | – | 99% | – |
| [Ca+2].[Cl-].[Cl-] [CaCl2] | 90% | 92% | 88% | 89% | 85% | 83% | – |
| [Cl][Cd][Cl] [CdCl2] | 85% | 5% | 0% | – | – | 38% | Relative activity (%), EDTA reactivation (AcR5b-acylase): 79% |
| O=C(O)CC(O)(CC(=O)O)C(=O)O [Citrate] | 106% | 122% | 100% | 113% | 133% | – | activity at 10000 µM (Ac6-acylase; [4]): 91% |
| [Cl-].[Cl-].[Co+2] [CoCl2] | 69% | 26% | 15% | 97% | 86% | 83% | Relative activity (%), EDTA reactivation (AcR5b-acylase): 91% |
| [Cl][Cu][Cl] [CuCl2] | 88% | 50% | 0% | 66% | 50% | 41% | Relative activity (%), EDTA reactivation (AcR5b-acylase): 86% |
| N[C@@H]1CONC1=O [D-cycloserine] | – | – | – | 104% | 96% | – | – |
| O=C(O)CN(CCN(CC(=O)O)CC(=O)O)CC(=O)O [EDTA] | – | – | – | – | – | – | Relative activity (%) (Ac6-acylase; pH 8): 102; activity at 10000 µM (Ac6-acylase): 104%; Relative activity (%) (AcR5b-acylase): 121; Relative activity (%) (AcR5b-acylase; pH 8): 119; Relative activity (%) [1]: 99 and 89 |
| [Cl][Fe]([Cl])[Cl] [FeCl3] | 101% | 121% | 132% | 101% | 37% | 92% | – |
| N[C@@H](CCC(=O)N[C@@H](CS)C(=O)NCC(=O)O)C(=O)O [Glutathion, reduced] | – | – | – | – | – | – | Relative activity (%) (Ac6-acylase; pH 8): 106; activity at 10000 µM (Ac6-acylase): 102%; Relative activity (%) (AcR5b-acylase): 112; Relative activity (%) (AcR5b-acylase; pH 8): 113; Relative activity (%) [1]: 104 and 93 |
| NC(=O)CI [Iodoacetamide] | 87% | 96% | 29% | 104% | 67% | – | activity at 10000 µM (Ac6-acylase; [4]): 32% |
| OCCS [Mercaptoethanol] | 104% | 115% | 69% | 106% | 101% | – | activity at 10000 µM (Ac6-acylase; [4]): 108% |
| [Cl-].[Cl-].[Mg+2] [MgCl2] | 90% | 103% | 93% | 101% | 87% | 99% | – |
| [Cl][Mn][Cl] [MnCl2] | 87% | 99% | 60% | 94% | 83% | 87% | – |
| [Cl][Ni][Cl] [NiCl2] | 40% | 14% | 0% | 87% | 80% | 10% | Relative activity (%), EDTA reactivation (AcR5b-acylase): 85% |
| [Cl][Pb][Cl] [PbCl2] | 95% | 79% | 9% | – | – | 99% | Relative activity (%), EDTA reactivation (AcR5b-acylase): 102% |
| O=S(=O)(F)Cc1ccccc1 [Phenylmethyl-sulfonyl fluoride] | 0% | 44% | – | – | – | 0% | Relative activity (%) (Ac6-acylase; compound 0.01 mM): 17%; Relative activity (%) (Ac6-acylase; compound 0.1 mM): 4.8%; Relative activity (%) ([1]; compound 0.01 mM): 0%; Relative activity (%) ([1]; compound 0.1 mM): 0% |
| [Cl][V]([Cl])[Cl] [VCl3] | 89% | 96% | 106% | – | – | 94% | – |
| [Cl-].[Cl-].[Zn+2] [ZnCl2] | 68% | < 1.5% | 0% | 66% | 0% | 47% | Relative activity (%), EDTA reactivation (AcR5b-acylase): 75% |
| O=C(O)c1cc[c]([Hg+])cc1.[OH-] [p-hydroxy-mercuribenzoate] | – | – | – | 89% | 96% | – | – |
